Consider two molecules from publication PMC10319115, “CL-705G: a novel chemical Kir6.2-specific KATP channel opener” (Frontiers in Pharmacology, 2023).

One assay addresses T1, Kir3.1/Kir3.4 (Mus musculus, UniProt P48548+P63250).
T1 construct: gene Kcnj3; heterotetramer expressed from cRNA in Xenopus laevis oocytes
T1 sequence (P63250 1-501): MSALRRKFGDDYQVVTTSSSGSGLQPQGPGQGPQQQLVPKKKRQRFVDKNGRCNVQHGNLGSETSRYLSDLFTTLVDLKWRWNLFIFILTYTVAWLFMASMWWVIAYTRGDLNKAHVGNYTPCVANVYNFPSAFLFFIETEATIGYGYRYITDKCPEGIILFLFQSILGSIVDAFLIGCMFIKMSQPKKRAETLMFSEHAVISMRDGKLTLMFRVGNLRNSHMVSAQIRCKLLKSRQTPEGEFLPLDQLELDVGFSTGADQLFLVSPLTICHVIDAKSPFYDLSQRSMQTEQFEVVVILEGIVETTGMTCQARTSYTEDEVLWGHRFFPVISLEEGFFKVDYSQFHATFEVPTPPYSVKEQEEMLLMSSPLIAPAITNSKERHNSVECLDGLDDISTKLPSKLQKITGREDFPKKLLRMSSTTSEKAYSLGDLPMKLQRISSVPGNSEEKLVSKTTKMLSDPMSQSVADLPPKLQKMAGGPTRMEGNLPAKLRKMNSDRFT
T1 sequence (P48548 1-419): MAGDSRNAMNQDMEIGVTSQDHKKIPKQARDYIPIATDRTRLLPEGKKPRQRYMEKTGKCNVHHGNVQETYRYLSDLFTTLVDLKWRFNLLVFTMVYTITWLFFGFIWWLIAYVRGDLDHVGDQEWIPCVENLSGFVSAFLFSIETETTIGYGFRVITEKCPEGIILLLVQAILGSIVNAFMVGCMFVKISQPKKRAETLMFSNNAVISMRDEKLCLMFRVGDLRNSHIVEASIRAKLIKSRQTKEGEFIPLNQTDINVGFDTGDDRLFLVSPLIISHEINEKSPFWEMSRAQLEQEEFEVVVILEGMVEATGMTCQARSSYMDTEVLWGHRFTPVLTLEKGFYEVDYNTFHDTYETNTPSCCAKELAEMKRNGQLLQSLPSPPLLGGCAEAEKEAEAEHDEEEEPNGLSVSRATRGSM
Put plainly: two-electrode voltage clamp, Xenopus oocytes. Particulars: inhibition; high K+ (96 mM) pH 7.3. It is filed as cell-based.

For a further assay, the system named is T2, Kir6.2/SUR2A.
T2 construct: gene KCNJ11; hetero-octamer
Put plainly: Tl+ flux (FluxOR II), initial rate, HEK-293. In kind it is cell-based. The settings on record: opener; 10 min preincubation.

Molecules are shown by their SMILES.

In the case of `O=C(c1cc(=O)[nH][nH]1)N1CCCC(CCc2ccccc2C(F)(F)F)C1` (centres unmarked) [CL-705G, 5-[(3-{2-[2-(trifluoromethyl)phenyl]ethyl}-1-piperidinyl)carbonyl]-1,2-dihydro-3H-pyrazol-3-one], the “% reduction of current at 100 μM” value on Kir3.1/Kir3.4 was determined as 17%.

In the assay on Kir6.2/SUR2A, `CC(NC(=NC#N)Nc1ccncc1)C(C)(C)C` (centres unmarked) [pinacidil] had a concentration giving a half-maximal response (EC50) of 11 µM.
